Where two headings read alike, the source gives them in different places. Starred links: 1 amine or outer side, 2 acyl side, 3 side chain; linkers in the order of their positions; H or OH if unused. Non-standard residues stand in square brackets, D forms with d. Residues, ends and D or L forms follow the SMILES beside them. Groups on a side chain read outwards from the residue. *: point of attachment. C20 diacid = O=C(O)CCCCCCCCCCCCCCCCCCC(=O)*; γGlu = O=C(O)[C@H](CCC(=O)[*:2])N[*:1]; Nle = CCCC[C@H](N)C(=O)O; AEEA = NCCOCCOCC(=O)O; Aib = CC(C)(N)C(=O)O
Tests used:
hCRHR2 = target: T1, hCRHR2 (Homo sapiens, UniProt Q13324); test: HTRF cAMP assay, determination of hCRHR2 potency (peptide libraries 5 conc., purified peptides 11 conc.); format: cell-based
T1 sequence (Q13324 1-411): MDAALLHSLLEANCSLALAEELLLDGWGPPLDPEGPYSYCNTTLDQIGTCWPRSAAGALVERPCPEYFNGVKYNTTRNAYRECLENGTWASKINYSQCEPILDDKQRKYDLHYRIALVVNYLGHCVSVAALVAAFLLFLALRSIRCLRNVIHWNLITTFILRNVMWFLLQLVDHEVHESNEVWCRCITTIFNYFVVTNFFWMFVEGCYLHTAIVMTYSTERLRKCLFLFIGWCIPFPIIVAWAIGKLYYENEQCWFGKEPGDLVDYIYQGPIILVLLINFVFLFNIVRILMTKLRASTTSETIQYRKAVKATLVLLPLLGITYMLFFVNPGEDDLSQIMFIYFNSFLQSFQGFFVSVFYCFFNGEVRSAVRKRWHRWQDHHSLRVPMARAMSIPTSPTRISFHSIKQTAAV
Method in brief: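 EC50 derived by variable-slope sigmoid regression of FRET-based cAMP data; cellular cAMP displaced d2-labelled tracer from cryptate anti-cAMP antibody. Stable human CRHR2 CHO-K1 suspension cells, revived from frozen stocks just before the run.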

[1] = Thioflavin T fibril formation assay of purified peptides; format: physicochemical; parameters: key: Amyloid fibril formation detected by an increase in ThT fluorescence was denoted with "Yes"; samples without increasing ThT fluorescence hence not forming amyloid fibrils were denoted "No"
Experimental: Thioflavin T fibril formation assay: Peptides were dissolved as 267 µM in 50 mM phosphate buffer pH 7.5 for 2 h at room temperature on a rocking table. The samples were then divided into three replicates of 80 µl/well and mixed with 2 µl/well Thioflavin T (ThT)to a final concentration of 4 µM ThT in a black 384 well microplate with a clear bottom (Greiner #781096). The plate was inserted in a CLARIOstar Plus microplate reader (BMG Labtech) and fibril formation was measured as an increase in fluorescence emission at 480 nm (excitation at 450 nm) during 96 h at 40°C with cycles of 5 min rest and 5 min linearshaking at700 rpm.
Compounds were dissolved to 200 µM (ca 1.0 mg/ml) in 50 mM phosphate buffer with preparation and ThT assay performed as described in the "General procedure for determination of fibril formation of peptides." above. Furthermore, samples were adjusted to pH values as indicated below. Additional co-formulations of compounds with semaglutide were prepared by dissolving compounds to 200 µM in commercially available semaglutide drug product (Ozempic®); these co-formulations were adjusted to pH 7.4.

[2] = Chemical stability of purified peptides (RP-UHPLC main peak purity loss); format: physicochemical
Experimental: Chemical stability was tested at a concentration of approximately of 1.0 mg/ml peptide in the following vehicles: 50 mM phosphate buffer pH 7.5. Dissolved samples were incubated for at least 2 h at room temperature on a rocking table. The main peak purity at time zero (T0) was determined using reversed phase chromatography. The samples were incubated at 40°C for 14 days (T14) and 28 days (T28). The samples were analyzed with reversed phase chromatography and size exclusion chromatography.
Reversed Phase chromatography was performed on a Thermo Dionex Ultimate UHPLC system with UV detection at 215 nm) and equipped with a Kinetex column (1.7 µm, C8, 100 Å, 150 x 2.1 mm (00F-4499-AN)). Analysis was performed by gradient elution with buffer A (0.1% TFA in 95:5 H2O:acetonitrile) and buffer B (0.1% TFA in 5:95 H2O: acetonitrile) at a column temperature of 50 °C (gradient used 25-55%B over 40 min. Flowrate was 0.5 mL/min. The main peak purity was determined from the integrated chromatogram as the area under the main peak relative to the total peak area. The purity loss was calculated as the difference between the T0 and T14 time point and/or as the difference between the T0 and T28 time point.
The chemical stability of selected peptides was evaluated at varying pH's at 40° C over 28 days. Samples were prepared and analysed as described in procedure with the addition of pH adjusting samples to the targets indicated below. As a comparator,r commercially available semaglutide drug product (Ozempic®, Novo Nordisk) was included in the sample set.

hCRHR1 = target: T2, hCRHR1 (Homo sapiens, UniProt P34998); test: HTRF cAMP assay, determination of hCRHR1 potency (peptide libraries 5 conc., purified peptides 11 conc.); format: cell-based
T2 sequence (P34998 24-415): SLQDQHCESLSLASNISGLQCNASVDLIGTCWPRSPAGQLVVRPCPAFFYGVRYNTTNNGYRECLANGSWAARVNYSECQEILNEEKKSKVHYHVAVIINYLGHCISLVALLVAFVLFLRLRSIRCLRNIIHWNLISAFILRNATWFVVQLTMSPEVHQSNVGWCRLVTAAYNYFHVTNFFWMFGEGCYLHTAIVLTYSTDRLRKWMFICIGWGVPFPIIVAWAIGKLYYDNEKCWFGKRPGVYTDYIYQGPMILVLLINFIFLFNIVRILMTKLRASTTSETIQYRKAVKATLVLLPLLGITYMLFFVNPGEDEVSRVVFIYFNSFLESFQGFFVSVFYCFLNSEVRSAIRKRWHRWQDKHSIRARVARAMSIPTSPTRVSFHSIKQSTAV
Method in brief: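 Cellular cAMP was read by time-resolved FRET between d2-labelled cAMP and cryptate anti-cAMP antibody. The cells were freshly thawed suspension CHO-K1 cells stably expressing human CRHR1.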

[3] = pH 7.5
[4] = Table 5, purified peptides, read-out: hCRHR2 EC50
[5] = Table 5, purified peptides, read-out: hCRHR1 EC50

| Selectivity ratio (hCRHR1/ hCRHR2) (hCRHR2; hCRHR1-EC50/hCRHR2-EC50) | EC50 (hCRHR2; purified peptides, CHO-K1 cells stably expressing hCRHR2, cAMP HTRF, read-out: hCRHR2 EC50) | Fibrillation (pH 7.5) ([1]; pH 7.5, ThT assay) | Chemical stability at pH 7.5 after 14 days at 40°C (% degradation) ([2]; pH 7.5, 40°C, 14 days, first value of cell) | Chemical stability at pH 7.5 after 28 days at 40°C (% degradation) ([2]; pH 7.5, 40°C, 28 days, second value of cell) | EC50 (hCRHR1; purified peptides, CHO-K1 cells stably expressing hCRHR1, cAMP HTRF, read-out: hCRHR1 EC50) | Solubility pH 7.5, target conc. =10 mg/mL (measured mg/mL) [3] | Selectivity ratio (hCRHR1/ hCRHR2) (hCRHR2; Table 5) | EC50 (hCRHR2; [4]) | Fibrillation (pH 7.5) ([1]; pH 7.5) | Chemical stability at pH 7.5 after 14 days at 40°C (% degradation) ([2]; pH 7.5, 14 days, 40°C) | Chemical stability at pH 7.5 after 28 days at 40°C (% degradation) ([2]; pH 7.5, 28 days, 40°C) | EC50 (hCRHR1; [5]) | EC50 (hCRHR2; library peptides, matched molecular pairs L vs Nle in position X^38, read-out: Potency hCRHR2 pEC50 (converted)) | EC50 (hCRHR1; library peptides, matched molecular pairs L vs Nle in position X^38, read-out: Potency hCRHR1 pEC50 (converted)) | SMILES |
| --- | --- | --- | --- | --- | --- | --- | --- | --- | --- | --- | --- | --- | --- | --- | --- |
| >1136 | 4.4 nM | No | -0.6% | -1.2% | > 5000 nM | 9.1 mg/mL | – | – | – | – | – | – | – | – | CC[C@H](C)[C@H](N)C(=O)N[C@H](C(=O)N[C@@H](CC(C)C)C(=O)N[C@@H](CO)C(=O)N[C@@H](CC(C)C)C(=O)N[C@@H](CC(=O)O)C(=O)N[C@H](C(=O)N1CCC[C@H]1C(=O)N[C@H](C(=O)NCC(=O)N[C@@H](CC(C)C)C(=O)N[C@@H](CC(C)C)C(=O)N[C@@H](CCC(N)=O)C(=O)N[C@H](C(=O)N[C@@H](CC(C)C)C(=O)N[C@@H](CC(C)C)C(=O)N[C@@H](CCC(=O)O)C(=O)N[C@@H](CCC(N)=O)C(=O)N[C@@H](C)C(=O)N[C@@H](CCCNC(=N)N)C(=O)N[C@@H](C)C(=O)N[C@@H](CCCNC(=N)N)C(=O)N[C@@H](C)C(=O)N[C@@H](C)C(=O)N[C@@H](CCCNC(=N)N)C(=O)N[C@@H](CCC(=O)O)C(=O)N[C@@H](CCC(N)=O)C(=O)N[C@@H](C)C(=O)N[C@@H](CCCCNC(=O)COCCOCCNC(=O)COCCOCCNC(=O)CC[C@H](NC(=O)CC[C@H](NC(=O)CCCCCCCCCCCCCCCCCCC(=O)O)C(=O)O)C(=O)O)C(=O)N[C@H](C(=O)N[C@@H](CC(N)=O)C(=O)N[C@@H](CC(C)C)C(=O)N[C@@H](CCC(=O)O)C(=O)N[C@H](C(=O)N[C@@H](CC(C)C)C(=O)N[C@@H](C)C(=O)N[C@@H](CCC(=O)O)C(=O)N[C@H](C(N)=O)C(C)C)[C@@H](C)CC)[C@@H](C)O)[C@@H](C)CC)[C@@H](C)CC)C(C)C)C(C)C [SEQ ID NO: 12] (H-IVLSLDVPIGLLQILLEQARARAAREQAK([AEEA-AEEA-γGlu-γGlu-C20 diacid])TNLEILAEV-NH2) |
| – | – | – | – | – | – | 11 mg/mL | >6494 | 0.77 nM | No | -0.43% | -0.8% | > 5000 nM | – | – | CCCC[C@H](NC(=O)[C@@H](NC(=O)[C@H](CCC(=O)O)NC(=O)C(C)(C)NC(=O)[C@H](CC(N)=O)NC(=O)[C@@H](NC(=O)[C@H](CCCCNC(=O)COCCOCCNC(=O)COCCOCCNC(=O)CC[C@H](NC(=O)CC[C@H](NC(=O)CCCCCCCCCCCCCCCCCCC(=O)O)C(=O)O)C(=O)O)NC(=O)[C@H](C)NC(=O)[C@H](CCC(N)=O)NC(=O)[C@H](CCC(=O)O)NC(=O)[C@H](CCCNC(=N)N)NC(=O)[C@H](C)NC(=O)[C@H](C)NC(=O)[C@H](CCCNC(=N)N)NC(=O)[C@H](C)NC(=O)[C@H](CCCNC(=N)N)NC(=O)[C@H](C)NC(=O)[C@H](CCC(N)=O)NC(=O)[C@H](CCC(=O)O)NC(=O)[C@H](CC(C)C)NC(=O)[C@H](CC(C)C)NC(=O)[C@@H](NC(=O)[C@H](CCC(N)=O)NC(=O)[C@H](CC(C)C)NC(=O)[C@H](CC(C)C)NC(=O)CNC(=O)[C@@H](NC(=O)[C@@H]1CCCN1C(=O)[C@@H](NC(=O)[C@H](CC(=O)O)NC(=O)[C@H](CC(C)C)NC(=O)[C@H](CO)NC(=O)[C@H](CC(C)C)NC(=O)[C@@H](NC(=O)[C@@H](N)[C@@H](C)CC)C(C)C)C(C)C)[C@@H](C)CC)[C@@H](C)CC)[C@@H](C)O)[C@@H](C)CC)C(=O)N[C@@H](C)C(=O)N[C@@H](CCC(=O)O)C(=O)N[C@H](C(N)=O)[C@@H](C)CC [compound 100] (H-IVLSLDVPIGLLQILLEQARARAAREQAK([AEEA-AEEA-γGlu-γGlu-C20 diacid])TN[Aib]EI[Nle]AEI-NH2) |
| – | – | – | – | – | – | 10 mg/mL | >9259 | 0.54 nM | No | -0.5% | -8.8% | > 5000 nM | 0.2 nM | 3980 nM | CCCC[C@H](NC(=O)[C@@H](NC(=O)[C@H](CCC(=O)O)NC(=O)[C@H](C)NC(=O)[C@H](CC(N)=O)NC(=O)[C@@H](NC(=O)[C@H](CCCCNC(=O)COCCOCCNC(=O)COCCOCCNC(=O)CC[C@H](NC(=O)CC[C@H](NC(=O)CCCCCCCCCCCCCCCCCCC(=O)O)C(=O)O)C(=O)O)NC(=O)[C@H](C)NC(=O)[C@H](CCC(N)=O)NC(=O)[C@H](CCC(=O)O)NC(=O)[C@H](CCCNC(=N)N)NC(=O)[C@H](C)NC(=O)[C@H](C)NC(=O)[C@H](CCCNC(=N)N)NC(=O)[C@H](C)NC(=O)[C@H](CCCNC(=N)N)NC(=O)[C@H](C)NC(=O)[C@H](CCC(N)=O)NC(=O)[C@H](CCC(=O)O)NC(=O)[C@H](CC(C)C)NC(=O)[C@H](CC(C)C)NC(=O)[C@@H](NC(=O)[C@H](CCC(N)=O)NC(=O)[C@H](CC(C)C)NC(=O)[C@H](CC(C)C)NC(=O)CNC(=O)[C@@H](NC(=O)[C@@H]1CCCN1C(=O)[C@@H](NC(=O)[C@H](CC(=O)O)NC(=O)[C@H](CC(C)C)NC(=O)[C@H](CO)NC(=O)[C@H](CC(C)C)NC(=O)[C@@H](NC(=O)[C@@H](N)[C@@H](C)CC)C(C)C)C(C)C)[C@@H](C)CC)[C@@H](C)CC)[C@@H](C)O)[C@@H](C)CC)C(=O)N[C@@H](C)C(=O)N[C@@H](CCC(=O)O)C(=O)N[C@H](C(N)=O)[C@@H](C)CC [compound 69] (H-IVLSLDVPIGLLQILLEQARARAAREQAK([AEEA-AEEA-γGlu-γGlu-C20 diacid])TNAEI[Nle]AEI-NH2) |
